For one experiment, the system named is HCC1954 cells. The experiment can be described thus: Antiproliferation assay (Cell-titer Glo, 72 h). Type of experiment: cell-based. The note with it: Homo sapiens, 72 h, means and standard deviations from three independent assays, read-out: HCC1954 (GI50/μM). Here is the method: (§1) Breast-cancer cell lines (SK-Br3, HCC-1954) were purchased from Korea Cell Line Bank (Seoul, Korea) and were cultured in RPMI medium supplemented with 10% FBS and penicillin/streptomycin (Welgene, Seoul, Korea). All cell lines were maintained at 37 °C in a cell incubator in the presence of 5% CO2.
(§2) Breast-cancer cells in culture media (100 μL volume/well, 5000 SK-Br3 cells/well, 1000 HCC-1954 cells/well) were seeded in tissue culture-treated 96-well plates, and incubated at a cell incubator for 24 h. Serially diluted compounds (3-fold, 10 point from 10 mM, duplicated) were pre-plated and 500 nL of compound solutions were pin-transferred to the cells in the assay plates using pintool system (JANUS liquid handler, PerkinElmer, Waltham, MA, USA) and incubated at a cell incubator for 72 h. Cell-titer Glo^TM reagent (50 μL, Promega Corp., Madison, WI, USA) was added to each well, and the luminescence signal was read using an Envision^TM plate reader (PerkinElmer, Waltham, MA, USA). The titration curve fitting and IC50 values were generated using Prism 7.0 s/w (GraphPad, San Diego, CA, USA).

A further experiment deals with SK-Br3 cells. The experiment can be described thus: Antiproliferation assay (Cell-titer Glo, 72 h). The note with it: Homo sapiens, SK-BR-3; 72 h; means and standard deviations from three independent assays; read-out: SK-Br3 (GI50/μM). It is filed as cell-based. Here is the method: as §1, §2
The target of a further experiment is CDK12/CyclinK (Homo sapiens, UniProt Q9NYV4). The experiment can be described thus: In vitro CDK12/cyclinK kinase assay. It is filed as biochemical. More on the design: purchased Reaction Biology Corp. (CRO that ran the assay). Here is the method:
In vitro CDK12/cyclinK assays for all compounds and in vitro kinome-wide inhibition profiling of 30d at 10 μM were performed by a CRO company (Reaction Biology Corp., San Diego, CA, USA).

Setting [1] is: Tables 1-4, read-out: CDK12/CyclinK (IC50/μM).

Where two headings read alike, the source gives them in different places.

Chain of CDK12/CyclinK (Q9NYV4 whole entry): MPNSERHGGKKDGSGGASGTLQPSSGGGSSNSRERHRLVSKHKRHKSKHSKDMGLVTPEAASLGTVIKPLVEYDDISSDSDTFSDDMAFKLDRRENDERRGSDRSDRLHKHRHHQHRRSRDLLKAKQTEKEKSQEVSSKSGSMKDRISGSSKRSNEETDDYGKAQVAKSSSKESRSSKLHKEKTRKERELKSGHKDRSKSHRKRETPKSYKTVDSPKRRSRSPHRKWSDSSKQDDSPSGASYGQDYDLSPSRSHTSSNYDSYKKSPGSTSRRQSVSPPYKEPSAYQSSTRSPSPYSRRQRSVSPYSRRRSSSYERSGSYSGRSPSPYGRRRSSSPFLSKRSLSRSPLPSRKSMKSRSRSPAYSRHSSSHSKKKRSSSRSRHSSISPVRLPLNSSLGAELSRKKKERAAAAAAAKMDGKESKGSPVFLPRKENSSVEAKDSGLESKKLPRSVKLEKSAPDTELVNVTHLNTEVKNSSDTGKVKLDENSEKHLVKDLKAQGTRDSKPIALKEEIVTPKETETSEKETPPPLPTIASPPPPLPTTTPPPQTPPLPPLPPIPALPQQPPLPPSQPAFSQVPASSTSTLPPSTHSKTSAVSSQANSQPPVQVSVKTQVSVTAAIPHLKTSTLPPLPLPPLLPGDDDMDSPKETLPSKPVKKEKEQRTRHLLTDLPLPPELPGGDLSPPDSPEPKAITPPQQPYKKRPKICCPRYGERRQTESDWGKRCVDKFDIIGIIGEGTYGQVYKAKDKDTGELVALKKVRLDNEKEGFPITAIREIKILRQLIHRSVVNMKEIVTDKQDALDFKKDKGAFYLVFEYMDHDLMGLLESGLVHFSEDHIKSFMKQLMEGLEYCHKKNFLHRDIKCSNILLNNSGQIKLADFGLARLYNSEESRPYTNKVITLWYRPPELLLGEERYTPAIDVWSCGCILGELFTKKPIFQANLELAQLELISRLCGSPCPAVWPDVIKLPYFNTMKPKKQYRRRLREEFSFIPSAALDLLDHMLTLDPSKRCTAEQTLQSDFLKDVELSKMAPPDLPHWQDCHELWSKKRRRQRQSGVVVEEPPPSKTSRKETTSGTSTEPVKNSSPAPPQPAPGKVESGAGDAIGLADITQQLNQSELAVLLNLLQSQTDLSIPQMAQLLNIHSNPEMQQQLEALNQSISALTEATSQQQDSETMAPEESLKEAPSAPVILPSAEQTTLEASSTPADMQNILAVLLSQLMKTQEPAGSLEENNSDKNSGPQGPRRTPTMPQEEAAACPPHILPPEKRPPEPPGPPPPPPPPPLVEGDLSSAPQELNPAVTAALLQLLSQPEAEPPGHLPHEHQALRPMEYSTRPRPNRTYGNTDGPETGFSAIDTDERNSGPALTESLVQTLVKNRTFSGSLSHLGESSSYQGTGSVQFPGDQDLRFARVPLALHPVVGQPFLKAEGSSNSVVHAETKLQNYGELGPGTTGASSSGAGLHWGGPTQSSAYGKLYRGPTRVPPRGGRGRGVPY
Chain of CDK12/CyclinK (O75909 whole entry partner): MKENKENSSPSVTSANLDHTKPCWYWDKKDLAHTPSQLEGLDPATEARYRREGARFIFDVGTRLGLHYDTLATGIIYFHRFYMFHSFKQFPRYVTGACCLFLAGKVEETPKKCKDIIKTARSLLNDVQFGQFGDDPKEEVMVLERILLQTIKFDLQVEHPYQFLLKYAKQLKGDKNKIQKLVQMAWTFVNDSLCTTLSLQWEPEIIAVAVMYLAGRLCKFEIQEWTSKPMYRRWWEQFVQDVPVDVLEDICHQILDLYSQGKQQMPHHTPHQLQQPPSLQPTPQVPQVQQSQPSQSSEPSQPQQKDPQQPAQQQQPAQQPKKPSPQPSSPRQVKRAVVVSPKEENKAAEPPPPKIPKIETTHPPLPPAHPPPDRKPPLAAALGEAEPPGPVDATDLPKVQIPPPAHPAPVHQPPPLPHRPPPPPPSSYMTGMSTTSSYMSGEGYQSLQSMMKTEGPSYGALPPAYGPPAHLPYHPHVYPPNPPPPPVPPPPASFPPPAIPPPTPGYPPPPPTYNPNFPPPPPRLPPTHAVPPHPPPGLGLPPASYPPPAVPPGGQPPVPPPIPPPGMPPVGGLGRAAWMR

`CC(C)n1cnc2c(NCc3ccc(-c4cccnc4)nc3)nc(-c3cnc(N)nc3)nc21` [Compound 18l, N-([2,3′-Bipyridin]-5-ylmethyl)-2-(2-aminopyrimidin-5-yl)-9-isopropyl-9H-purin-6-amine]: the GI50 in the experiment on HCC1954 cells came to 0.162 ± 0.011 µM; in the experiment with SK-Br3 cells, 0.242 ± 0.042 µM. In addition, the IC50 was 0.087 µM at CDK12/CyclinK (setting [1]) and below 0.1 µM at CDK12/CyclinK (read-out: CDK12/cyclinK IC50).

Turning to `CC(C)n1cnc2c(NCc3ccc(-c4cccnc4)nc3)nc(-c3cnc4ccccc4c3)nc21` [Compound 18g, N-([2,3′-Bipyridin]-5-ylmethyl)-9-isopropyl-2-(quinolin-3-yl)-9H-purin-6-amine], the GI50 in the experiment on HCC1954 cells worked out at 4.23 ± 0.214 µM; in the experiment with SK-Br3 cells, 3.71 ± 0.557 µM. The IC50 on CDK12/CyclinK (setting [1]) turned out to be 0.486 µM.

In the case of `CC(C)n1cnc2c(NCc3ccc(-c4cccnc4)nc3)nc(-c3ccnc(N)c3)nc21` [Compound 18j, N-([2,3′-Bipyridin]-5-ylmethyl)-2-(2-aminopyridin-4-yl)-9-isopropyl-9H-purin-6-amine], the results for the GI50 in the experiment on HCC1954 cells and in the experiment with SK-Br3 cells were 0.354 ± 0.06 µM and 0.71 ± 0.024 µM, respectively. The IC50 at CDK12/CyclinK (setting [1]) is 0.094 µM; at CDK12/CyclinK (read-out: CDK12/cyclinK IC50), below 0.1 µM.

As for `CC(C)n1cnc2c(NCc3nc4ccc(F)c(F)c4[nH]3)nc(N3CCCC[C@H]3CCO)nc21` [Compound 2, reference compound], the GI50 with HCC1954 cells is 0.069 ± 0.006 µM; in the experiment on SK-Br3 cells, 0.094 ± 0.012 µM. Also, on CDK12/CyclinK (Table 5, means and standard deviations from three independent assays, read-out: CDK12/CyclinK (IC50/μM)), the IC50 was determined as 0.0086 ± 0.0017 µM.

On to `CC(C)n1cnc2c(NCc3ccc(-c4cccnc4)nc3)nc(-c3ccc(NCCCO)nc3)nc21` [Compound 22b, 3-((5-(6-(([2,3′-Bipyridin]-5-ylmethyl)amino)-9-isopropyl-9H-purin-2-yl)pyridin-2-yl)amino)propan-1-ol], for which the GI50 in the experiment on HCC1954 cells turned out to be 0.977 ± 0.07 µM; in the experiment on SK-Br3 cells, 1.18 ± 0.118 µM. In addition, the IC50 at CDK12/CyclinK (setting [1]) came out at 0.304 µM.

In the case of `CC(C)n1cnc2c(NCc3ccc(-c4cccnc4)nc3)nc(-c3ccc(NCCCO)cc3)nc21` [Compound 20d, 3-((4-(6-(([2,3′-Bipyridin]-5-ylmethyl)amino)-9-isopropyl-9H-purin-2-yl)phenyl)amino)propan-1-ol], the figures for the GI50 in the experiment with HCC1954 cells and with SK-Br3 cells were 0.907 ± 0.068 µM and 1.09 ± 0.127 µM, respectively. Moreover, the IC50 at CDK12/CyclinK (setting [1]) is 0.499 µM.

Take `CC(C)n1cnc2c(NCc3ccc(-c4cccnc4)nc3)nc(-c3ccccc3NCCO)nc21` [Compound 20a, 2-((2-(6-(([2,3′-Bipyridin]-5-ylmethyl)amino)-9-isopropyl-9H-purin-2-yl)phenyl)amino)ethan-1-ol]: the GI50 in the experiment on HCC1954 cells stood at 1.56 ± 0.116 µM; with SK-Br3 cells, 2.3 ± 0.318 µM. Further, the IC50 at CDK12/CyclinK (setting [1]) was 0.799 µM.

As for `CC[C@H](CO)Nc1nc(NCc2ccc(-c3ccccn3)cc2)c2ncn(C(C)C)c2n1` [R-CR8 (9), reference compound], the figures for the GI50 in the experiment on HCC1954 cells and with SK-Br3 cells were 0.083 ± 0.011 µM and 0.101 ± 0.014 µM, respectively.

Take `CC(C)n1cnc2c(NCc3ccc(-c4cccnc4)nc3)nc(-c3cccnc3)nc21` [Compound 17f, N-([2,3′-Bipyridin]-5-ylmethyl)-9-isopropyl-2-(pyridin-3-yl)-9H-purin-6-amine]: the GI50 in the experiment with HCC1954 cells stood at 0.247 ± 0.03 µM; in the experiment on SK-Br3 cells, 0.41 ± 0.034 µM. In addition, the IC50 on CDK12/CyclinK (setting [1]) amounted to 0.221 µM.

With `CC(C)n1cnc2c(NCc3ccc(-c4cccnc4)nc3)nc(-c3ccccc3N)nc21` [Compound 19a, N-([2,3′-Bipyridin]-5-ylmethyl)-2-(2-aminophenyl)-9-isopropyl-9H-purin-6-amine], the values for the GI50 with HCC1954 cells and in the experiment on SK-Br3 cells were 2.63 ± 0.448 µM and 2.61 ± 0.899 µM, respectively. Moreover, the IC50 at CDK12/CyclinK (setting [1]) was found to be 0.619 µM.

For `CC(C)n1cnc2c(NCc3ccc(-c4cccnc4)nc3)nc(-c3ccnc(F)c3)nc21` [Compound 21b, N-([2,3′-Bipyridin]-5-ylmethyl)-2-(2-fluoropyridin-4-yl)-9-isopropyl-9H-purin-6-amine], the GI50 is 1.27 ± 0.021 µM with HCC1954 cells and 1.68 ± 0.267 µM in the experiment with SK-Br3 cells. Also, the IC50 on CDK12/CyclinK (setting [1]) is 0.164 µM.

For the molecule `c1cncc(-c2ccc(CNc3nc(-c4cccnc4)nc4c3ncn4C3CCOCC3)cn2)c1` [Compound 28c, N-([2,3′-Bipyridin]-5-ylmethyl)-2-(pyridin-3-yl)-9-(tetrahydro-2H-pyran-4-yl)-9H-purin-6-amine], the GI50 was 44.4 ± 2.46 µM in the experiment with HCC1954 cells and above 100 µM in the experiment with SK-Br3 cells.

The values are drawn from publication PMC9506414, “Novel 2,6,9-Trisubstituted Purines as Potent CDK Inhibitors Alleviating Trastuzumab-Resistance of HER2-Positive Breast Cancers” (Pharmaceuticals, 2022).
